Assay results: article PMC6271834, “Antiprotozoal Activity of (E)-Cinnamic N-Acylhydrazone Derivatives” (Molecules, 2014)
Where two headings read alike, the source gives them in different places.

Legend:
[1] = system: Leishmania donovani (MHOM/ET/67/L82) axenic amastigotes; assay: Leishmanicidal activity, axenic amastigotes, Alamar Blue; assay type: cell-based; settings: for SI (Selectivity Index for leishmanicidal activity): L-6 cells versus L. donovani; for IC50: Leishmania donovani, axenic amastigotes, strain MHOM/ET/67/L82, 72 h, means of two determinations, read-out: L. donovani IC50
Description: Amastigotes of Leishmania donovani strain MHOM/ET/67/L82 were grown in axenic culture at 37 °C in SM medium at pH 5.4 supplemented with 10% heat-inactivated fetal bovine serum under an atmosphere of 5% CO2 in air. One hundred microliters of culture medium with 10^5 amastigotes from axenic culture with or without the compound to test were seeded in 96-well microtiter plates. […] Each drug was tested in duplicate and each assay was repeated at least once. After 72 h of incubation the plates were inspected under an inverted microscope to assure growth of the controls and sterile conditions. Ten microliters of Alamar Blue (12.5 mg resazurin dissolved in 100 mL phosphate buffered saline) were then added to each well and the plates incubated for another 2 h. Then the plates were read in a Spectramax Gemini XS microplate fluorometer (Molecular Devices Cooperation, Sunnyvale, CA, USA) using an excitation wave length of 536 nm and an emission wave length of 588 nm. Data were analyzed using the software Softmax Pro (Molecular Devices Cooperation, Sunnyvale, CA, USA). Decrease of fluorescence (=inhibition) was expressed as percentage of the fluorescence of control cultures. For the serial drug dilution assay inhibition values were plotted against the drug concentrations and IC50 values were calculated from the sigmoidal inhibition curves.

[2] = system: Trypanosoma brucei rhodesiense (STIB900); assay: Trypanocidal activity, bloodstream forms, Alamar Blue; assay type: cell-based; settings: read-out: T.b. rhod. IC50
Description: Minimum essential medium (50 μL) supplemented according to a known procedure with 2-mercaptoethanol and 15% heat-inactivated horse serum was added to each well of a 96-well microtiter plate. Serial drug dilutions were prepared covering a range from 90 to 0.123 μg/mL. Then 10^4 bloodstream forms of T. b. rhodesiense STIB 900 in 50 μL were added to each well and the plate incubated at 37 °C under a 5% CO2 atmosphere for 72 h. Ten microliters of Alamar Blue (containing 12.5 mg resazurin dissolved in […] distilled water) were then added to each well and incubation continued for a further 2–4 h. The Alamar Blue dye is an indicator of cellular growth and/or viability. The blue, non-fluorescent, oxidized form becomes pink and fluorescent upon reduction by living cells. The plate was then read in a Spectramax Gemini XS microplate fluorometer (Molecular Devices Cooperation, Sunnyvale, CA, USA) using an excitation wavelength of 536 nm and emission wavelength of 588 nm. Fluorescence development was measured and expressed as percentage of the control. Data were transferred into the graphic programme Softmax Pro (Molecular Devices,) which calculated IC50 values. Melarsoprol was used as standard.

[3] = system: Trypanosoma brucei rhodesiense (STIB900); assay: as above; assay type: cell-based; settings: L-6 cells versus T. b. rhodesiense
L-6 rat myoblast cells = assay: Cytotoxicity to L-6 cells, Alamar Blue; assay type: cell-based; settings: for IC50: read-out: Cytot. L-6 Cells IC50
Description: Exactly 100 μL RPMI 1640 medium supplemented with 1% L-glutamine (200 mM) and 10% fetal bovine serum containing 4 × 10^4 L-6 cells (rat skeletal myoblasts) were added to each well of a 96-well microtiter plate. After 24 h, the medium was removed from all wells and replaced by 100 μL of fresh medium containing a 3-fold serial drug dilution covering a range from 200 μg/mL to 0.274 μg/mL, except for the control wells. After 72 h of incubation 10 μL of Alamar Blue (12.5 mg resazurin dissolved in 100 mL phosphate buffered saline) were added to each well and the plates were incubated for another 2 h. Then the plates were read with a Spectramax Gemini XS microplate fluorometer as described for the leishmanicidal assay. Podophyllotoxin was used as standard drug.

[4] = system: L. major cathepsin L-like cysteine protease; set-up: method as in PMID 9371086; settings: cited from earlier work
cruzipain = system: cruzipain; set-up: method as in doi:10.1590/S0103-50532010000100021; settings: cited from earlier work
[5] = bloodstream forms, STIB900, 72 h, means of two determinations
[6] = L6, L-6 rat skeletal myoblasts, 72 h, means of two determinations
[7] = L-6 rat skeletal myoblasts, 72 h, means of two determinations

Compound | SI (Selectivity Index for leishmanicidal activity) [1] | IC50 [1] | IC50 [2, 5] | SI (Selectivity Index for trypanocyde activity) [3] | IC50 (L-6 rat myoblast cells; [6]) | IC50 ([2]; 72 h) | IC50 [4] | IC50 (L-6 rat myoblast cells; Rattus norvegicus, L6, 72 h) | Cytot. L-6 Cells IC50 (L-6 rat myoblast cells; [7]) | IC50 (cruzipain)
O=C(/C=C/c1ccccc1)N/N=C/c1ccc(O)cc1 [Compound 13] | 1.1 | 36.7 µM | 82.5 µM | 0.5 | 40.4 µM | – | – | – | – | –
COc1ccc(/C=N/NC(=O)/C=C/c2ccccc2)cc1OC [Compound 14] | >9.3 | 31.2 µM | 67.6 µM | >4.3 | > 290 µM | – | – | – | – | –
Nc1nc(N)nc(Nc2ccc([As]3SCC(CO)S3)cc2)n1 (centres unmarked) [MLSP, Melarsoprol, reference compound] | – | – | – | – | – | 0.003 µM | – | – | – | –
COc1cc(/C=N/NC(=O)/C=C/c2ccccc2)ccc1O [Compound 4] | 4.4 | 21.7 µM | 40.8 µM | 2.3 | 95.4 µM | – | – | – | – | –
COc1cc(/C=N/NC(=O)/C=C/c2ccccc2)cc(OC)c1OC [Compound 7] | 34.3 | 3.5 µM | 49.3 µM | 2.4 | 120 µM | – | – | – | – | –
(E)-3-hydroxy-N'-((2-hydroxynaphthalen-1-yl)methylene)-7-methoxy-2-naphthohydrazide [Compound 2] | – | – | – | – | – | – | 0.5 µM | – | – | –
COc1cc([C@@H]2c3cc4c(cc3[C@H](O)[C@H]3COC(=O)[C@H]23)OCO4)cc(OC)c1OC [PPT, Podophyllotoxin, reference compound] | – | – | – | – | – | – | – | 0.006 µM | – | –
O=C(/C=C/c1ccccc1)N/N=C/c1ccccc1 [Compound 12, (2E)-N'-[(E)-Benzylidene]-3-phenylprop-2-enohydrazide] | 3.6 | 43.1 µM | > 300 µM | – | 157 µM | – | – | – | – | –
COc1ccc(/C=N/NC(=O)/C=C/c2ccccc2)cc1 [Compound 10] | – | 13.8 µM | 111 µM | – | > 321 µM | – | – | – | – | –
O=C(/C=C/c1ccccc1)N/N=C/c1ccc(Cl)cc1 [Compound 11, (2E)-N'-[(E)-4-Chlorobenzylidene]-3-phenylprop-2-enohydrazide] | 6.0 | 10.8 µM | 121 µM | 0.5 | 65.5 µM | – | – | – | – | –
O=C(/C=C/c1ccccc1)N/N=C/c1ccccc1O [Compound 15, (2E)-N'-[(E)-2-Hydroxybenzylidene]-3-phenylprop-2-enohydrazide] | 4.1 | 3.61 µM | 6.72 µM | 2.2 | 14.9 µM | – | – | – | cytotoxic | –
CCCCCCCCCCCCCCCCOP(=O)([O-])OCC[N+](C)(C)C [MTS, Miltefosine, reference compound] | – | 0.348 µM | – | – | – | – | – | – | – | –
O=C(/C=C/c1ccccc1)N/N=C/c1ccc2c(c1)OCO2 [Compound 6] | 0.3 | 12.5 µM | 89.5 µM | 0.05 | 4.3 µM | – | – | – | – | –
O=C(/C=C/c1ccccc1)N/N=C/c1ccc(F)cc1 [Compound 8] | >13.8 | 24.3 µM | 284 µM | >1.2 | > 335 µM | – | – | – | – | –
(E)-1-(benzo[d][1,3]dioxol-5-yl)-3-(4-bromophenyl)prop-2-en-1-one [Compound 1] | – | – | – | – | – | – | – | – | – | 20 µM
O=C(/C=C/c1ccccc1)NN=Cc1ccc(O)c(O)c1 [Compound 5, (E)-N'-(3,4-dihydroxybenzylidene)cinnamohydrazide] | 1.2 | 11.7 µM | 1.93 µM | 7.3 | 14 µM | – | – | – | cytotoxic | –
COc1ccc(/C=N/NC(=O)/C=C/c2ccccc2)cc1O [Compound 16] | 1.4 | 33.3 µM | 80.1 µM | 0.6 | 48.1 µM | – | – | – | – | –
O=C(/C=C/c1ccccc1)N/N=C/c1ccc([N+](=O)[O-])cc1 [Compound 9] | 24.1 | 10.6 µM | > 300 µM | – | 255 µM | – | – | – | – | –
